Data reported in US8168667B2 (Galapagos NV, priority 2006, dated 2012).
Where two headings read alike, the source gives them in different places.

Molecular target: T1, human androgen receptor (hAR) (Homo sapiens, UniProt P10275)
T1 sequence (P10275 1-920): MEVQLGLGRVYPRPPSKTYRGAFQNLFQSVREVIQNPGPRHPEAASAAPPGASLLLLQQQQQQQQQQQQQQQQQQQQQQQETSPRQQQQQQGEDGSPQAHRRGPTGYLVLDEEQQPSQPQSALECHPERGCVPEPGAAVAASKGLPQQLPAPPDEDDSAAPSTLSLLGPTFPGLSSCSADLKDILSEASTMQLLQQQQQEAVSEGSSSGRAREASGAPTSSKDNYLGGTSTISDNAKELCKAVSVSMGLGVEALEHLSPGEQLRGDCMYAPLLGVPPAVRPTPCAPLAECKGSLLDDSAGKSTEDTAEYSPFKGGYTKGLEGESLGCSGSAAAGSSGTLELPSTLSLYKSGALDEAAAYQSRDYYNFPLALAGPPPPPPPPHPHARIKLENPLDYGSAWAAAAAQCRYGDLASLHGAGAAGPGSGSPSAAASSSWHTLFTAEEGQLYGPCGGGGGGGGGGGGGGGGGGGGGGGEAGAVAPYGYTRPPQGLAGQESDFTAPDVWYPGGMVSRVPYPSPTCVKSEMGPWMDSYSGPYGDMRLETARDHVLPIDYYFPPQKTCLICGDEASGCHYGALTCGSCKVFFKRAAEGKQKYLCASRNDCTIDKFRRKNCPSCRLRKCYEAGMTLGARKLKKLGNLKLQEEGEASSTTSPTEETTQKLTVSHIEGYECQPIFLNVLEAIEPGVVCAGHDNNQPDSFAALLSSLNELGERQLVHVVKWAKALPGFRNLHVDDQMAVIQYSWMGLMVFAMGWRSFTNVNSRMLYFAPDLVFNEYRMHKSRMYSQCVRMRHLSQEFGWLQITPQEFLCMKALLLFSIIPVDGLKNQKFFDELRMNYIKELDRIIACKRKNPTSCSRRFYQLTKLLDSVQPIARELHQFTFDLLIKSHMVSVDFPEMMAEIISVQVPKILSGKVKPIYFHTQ
Test: Functional response test: hAR transactivation (luciferase reporter) in HALP2 cells
Type: cell-based
Settings: for EC50: agonism, HALP2 cells (HeLa, hAR + ARE-luciferase), 20 hours at 37° C.
Description: This test constitutes a method of identifying pure or partial agonists which mimic the effects of natural hormones, such as DHT (dihydrotestosterone) in the present case or, on the other hand, antagonists which inhibit them.
For this transactivation test, plasmids encoding a reporter gene and the human androgen receptor (hAR) are introduced together by transfection into the HeLa cell line. The reporter plasmid contains luciferase cDNA under the control of the AREs contained in the promoter sequences of the probasin gene (3xpbAREminicoll-luciferase/pGL3-puro). The expression of the reporter gene constitutes an indication of the transcriptional activity of hAR. It also encodes a protein allowing the cells expressing it to resist a treatment with puromycin. The plasmid encoding hAR contains the cDNA of hAR under the control of the Cytomegalovirus (CMV) promoter. It also encodes a protein allowing the cells expressing it to resist a treatment with neomycin. The treatment of cells with increasing amounts of potentially agonistic compounds will increase the expression of the reporter gene. To detect antagonists, on the other hand, increasing doses of test compounds are tested in the presence of […] of DHT. The expression of the reporter gene, which is constant for each dose of DHT, decreases when the concentration of the test compounds increases.
For this test, HeLa cells were obtained from the American Type Culture Collection (Rockville, Md.) and cultivated in DMEM medium containing 4.5 g/l of glucose, supplemented with Glutamax and with nonessential amino-acids and with 10% of foetal calf serum (SVF; Dominique Dutscher).
On the day before transfection, a million cells were seeded in DMEM medium without phenol red, supplemented with Glutamax and with desteroided SVF (5%) in Petri dishes. The cells were transfected with 4 μg of the puromycin resistance plasmids pcDNA3-hAR and 3xpbAREminicoll-luciferase/pGL3 using the reagent “Lipofectamine plus” (Invitrogen), following the supplier's recommendations. The day after transfection, the cells were seeded to different cell densities (10,000 to 100,000 cellules per Petri dish). Two days after transfection, the transfected cells were selected in DMEM medium without phenol red, supplemented with Glutamax and with desteroided SVF (5%) containing 400 μg/mL of G418 (Invitrogen) and 150 ng/mL of puromycin (Sigma). The culture medium was renewed weekly until resistant clones appeared. The resistant clones were removed and amplified before being tested for their functional response. […]
The functional response test was conducted on 96-well plates. The HALP2 cells were seeded (30,000 cells per well) 24 hours before the phase of stimulation in DMEM medium containing 4.5 g/L of glucose, supplemented with Glutamax and nonessential amino-acids, and with desteroided SVF (5%).
On the day of stimulation, the seeding medium was replaced by DMEM medium without phenol red, supplemented with Glutamax and with desteroided SVF (5%). […] The cells were placed in contact with the compounds for 20 hours at 37° C.

[1] = antagonism, concentration which increases the EC50 of the DHT by a factor of 2, Schild regression, HALP2 cells

Row | EC50 | KSchild (nM) potency [1] | Compound | KSchild (nM) potency
1 | 200 nM | 200 nM | CCOC(=O)CCN1C(=O)N(c2ccc(F)c(F)c2)C(=O)C1c1ccc(O)cc1 (centres unmarked) [Example 76] | 
2 | 122 nM | 94.87 nM | CCOC(=O)CCN1C(=O)N(c2ccc(Cl)c(C(F)(F)F)c2)C(=O)C1c1ccc(O)cc1 (centres unmarked) [Example 77] | 
3 | 94.9 nM | 77.46 nM | CCOC(=O)CCN1C(=O)N(c2ccc(F)c(C(F)(F)F)c2)C(=O)C1c1ccc(O)cc1 (centres unmarked) [Example 78] | 
4 | 69.3 nM | 69.28 nM | CCOC(=O)CCN1C(=O)N(c2ccc(F)c(Cl)c2)C(=O)C1c1ccc(O)cc1 (centres unmarked) [Example 79] | 
5 | 80 nM | 80 nM | CCOC(=O)CCN1C(=O)N(c2cccc(C(F)(F)F)c2)C(=O)C1c1ccc(O)cc1 (centres unmarked) [Example 80] | 
6 |  |  | CCOC(=O)CCN1C(=O)N(c2ccc([N+](=O)[O-])cc2)C(=O)C1c1ccc(O)cc1 (centres unmarked) [Example 81] | 16.38 nM
7 |  |  | CCOCCCN1C(=O)N(c2ccc(C#N)c(C(F)(F)F)c2)C(=O)C1c1ccc(O)cc1 (centres unmarked) [Example 82] | 30 nM
8 |  |  | CCOCCCN1C(=O)N(c2ccc([N+](=O)[O-])c(C(F)(F)F)c2)C(=O)C1c1ccc(O)cc1 (centres unmarked) [Example 83] | 565.69 nM
9 | 24.5 nM | 17.32 nM | CCOCCCN1C(=O)N(c2ccc(Cl)c(Cl)c2)C(=O)C1c1ccc(O)cc1 (centres unmarked) [Example 84] | 
10 | 300 nM | 300 nM | CCOCCCN1C(=O)N(c2ccc(F)c(F)c2)C(=O)C1c1ccc(O)cc1 (centres unmarked) [Example 85] | 
11 | 49 nM | 48.99 nM | CCOCCCN1C(=O)N(c2ccc(Cl)c(C(F)(F)F)c2)C(=O)C1c1ccc(O)cc1 (centres unmarked) [Example 86] | 
12 | 77.5 nM | 77.46 nM | CCOCCCN1C(=O)N(c2ccc(F)c(C(F)(F)F)c2)C(=O)C1c1ccc(O)cc1 (centres unmarked) [Example 87] | 
13 | 34.6 nM | 34.64 nM | CCOCCCN1C(=O)N(c2ccc(F)c(Cl)c2)C(=O)C1c1ccc(O)cc1 (centres unmarked) [Example 88] | 
14 | 200 nM | 200 nM | CCOCCCN1C(=O)N(c2cccc(C(F)(F)F)c2)C(=O)C1c1ccc(O)cc1 (centres unmarked) [Example 89] | 
15 |  |  | N#CCN1C(=O)N(c2ccc(C#N)c(C(F)(F)F)c2)C(=O)C1c1ccc(O)cc1 (centres unmarked) [Example 90] | 282.84 nM
16 | 94.9 nM | 94.87 nM | N#CCN1C(=O)N(c2ccc(Cl)c(Cl)c2)C(=O)C1c1ccc(O)cc1 (centres unmarked) [Example 91] | 
17 | 1500 nM | 1500 nM | N#CCN1C(=O)N(c2ccc(F)c(F)c2)C(=O)C1c1ccc(O)cc1 (centres unmarked) [Example 92] | 
18 |  |  | N#CCN1C(=O)N(c2ccc(Cl)c(C(F)(F)F)c2)C(=O)C1c1ccc(O)cc1 (centres unmarked) [Example 93] | 30 nM
19 | 300 nM | 300 nM | N#CCN1C(=O)N(c2ccc(F)c(C(F)(F)F)c2)C(=O)C1c1ccc(O)cc1 (centres unmarked) [Example 94] | 
20 | 632 nM | 632.46 nM | N#CCN1C(=O)N(c2ccc(F)c(Cl)c2)C(=O)C1c1ccc(O)cc1 (centres unmarked) [Example 95] | 
21 | 693 nM | 692.82 nM | N#CCN1C(=O)N(c2cccc(C(F)(F)F)c2)C(=O)C1c1ccc(O)cc1 (centres unmarked) [Example 96] | 
22 |  |  | N#Cc1ccc(N2C(=O)C(c3ccc(O)cc3)N(Cc3ccc4c(c3)OCO4)C2=O)cc1C(F)(F)F (centres unmarked) [Example 97] | 28.28 nM

Row | EC50 | KSchild (nM) potency [1] | Compound | KSchild (nM) potency
23 |  |  | O=C1C(c2ccc(O)cc2)N(Cc2ccc3c(c2)OCO3)C(=O)N1c1ccc([N+](=O)[O-])c(C(F)(F)F)c1 (centres unmarked) [Example 98] | 94.87 nM
24 | 69.3 nM | 69.28 nM | O=C1C(c2ccc(O)cc2)N(Cc2ccc3c(c2)OCO3)C(=O)N1c1ccc(Cl)c(Cl)c1 (centres unmarked) [Example 99] | 
25 | 77.5 nM | 77.46 nM | O=C1C(c2ccc(O)cc2)N(Cc2ccc3c(c2)OCO3)C(=O)N1c1ccc(F)c(F)c1 (centres unmarked) [Example 100] | 
26 | 245 nM | 244.95 nM | O=C1C(c2ccc(O)cc2)N(Cc2ccc3c(c2)OCO3)C(=O)N1c1ccc(Cl)c(C(F)(F)F)c1 (centres unmarked) [Example 101] | 
27 | 49 nM | 48.99 nM | O=C1C(c2ccc(O)cc2)N(Cc2ccc3c(c2)OCO3)C(=O)N1c1ccc(F)c(C(F)(F)F)c1 (centres unmarked) [Example 102] | 
28 | 49 nM | 48.99 nM | O=C1C(c2ccc(O)cc2)N(Cc2ccc3c(c2)OCO3)C(=O)N1c1ccc(F)c(Cl)c1 (centres unmarked) [Example 103] | 
29 | 200 nM | 200 nM | O=C1C(c2ccc(O)cc2)N(Cc2ccc3c(c2)OCO3)C(=O)N1c1cccc(C(F)(F)F)c1 (centres unmarked) [Example 104] | 
30 |  |  | CN(C)CCN1C(=O)N(c2ccc(C#N)c(C(F)(F)F)c2)C(=O)C1c1ccc(O)cc1 (centres unmarked) [Example 113] | 109.54 nM
31 |  |  | CN(C)CCN1C(=O)N(c2ccc([N+](=O)[O-])c(C(F)(F)F)c2)C(=O)C1c1ccc(O)cc1 (centres unmarked) [Example 114] | 1095.45 nM
32 | 141 nM | 141.42 nM | CN(C)CCN1C(=O)N(c2ccc(Cl)c(Cl)c2)C(=O)C1c1ccc(O)cc1 (centres unmarked) [Example 115] | 
33 | 2000 nM | 2000 nM | CN(C)CCN1C(=O)N(c2ccc(F)c(F)c2)C(=O)C1c1ccc(O)cc1 (centres unmarked) [Example 116] | 
34 | 77.5 nM | 77.46 nM | CN(C)CCN1C(=O)N(c2ccc(Cl)c(C(F)(F)F)c2)C(=O)C1c1ccc(O)cc1 (centres unmarked) [Example 117] | 
35 | 245 nM | 244.95 nM | CN(C)CCN1C(=O)N(c2ccc(F)c(C(F)(F)F)c2)C(=O)C1c1ccc(O)cc1 (centres unmarked) [Example 118] | 
36 | 283 nM | 282.84 nM | CN(C)CCN1C(=O)N(c2ccc(F)c(Cl)c2)C(=O)C1c1ccc(O)cc1 (centres unmarked) [Example 119] | 
37 | 424 nM | 424.26 nM | CN(C)CCN1C(=O)N(c2cccc(C(F)(F)F)c2)C(=O)C1c1ccc(O)cc1 (centres unmarked) [Example 120] | 
38 |  |  | N#CCCN1C(=O)N(c2ccc(C#N)c(C(F)(F)F)c2)C(=O)C1c1ccc(O)cc1 (centres unmarked) [Example 121] | 17.32 nM
39 |  |  | N#CCCN1C(=O)N(c2ccc([N+](=O)[O-])c(C(F)(F)F)c2)C(=O)C1c1ccc(O)cc1 (centres unmarked) [Example 122] | 244.95 nM
40 | 42.4 nM | 30 nM | N#CCCN1C(=O)N(c2ccc(Cl)c(Cl)c2)C(=O)C1c1ccc(O)cc1 (centres unmarked) [Example 123] | 
41 | 89.4 nM | 89.44 nM | N#CCCN1C(=O)N(c2ccc(F)c(F)c2)C(=O)C1c1ccc(O)cc1 (centres unmarked) [Example 124] | 
42 |  |  | N#CCCN1C(=O)N(c2ccc(Cl)c(C(F)(F)F)c2)C(=O)C1c1ccc(O)cc1 (centres unmarked) [Example 125] | 30 nM
43 | 212 nM | 212.13 nM | N#CCCN1C(=O)N(c2ccc(F)c(C(F)(F)F)c2)C(=O)C1c1ccc(O)cc1 (centres unmarked) [Example 126] | 
